Results reported in PubChem BioAssay (NCI).
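These data come from cells grown in 96-well plates and exposed to compound for 48 hours at five concentrations. The concentration for full growth arrest is given as TGI.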

Key:
Assay in all cases: NCI-60 cell line screen, 48 h
EKVX NSCLC = test system: EKVX NSCLC
HCT-15 colon = test system: HCT-15 colon
HOP-92 NSCLC = test system: HOP-92 NSCLC
IGROV1 ovarian = test system: IGROV1 ovarian
MCF7 breast = test system: MCF7 breast
NCI-H226 lung = test system: NCI-H226 lung
NCI/ADR-RES ovarian = test system: NCI/ADR-RES ovarian
OVCAR-5 ovarian = test system: OVCAR-5 ovarian
SK-OV-3 ovarian = test system: SK-OV-3 ovarian
UACC-257 melanoma = test system: UACC-257 melanoma
UACC-62 melanoma = test system: UACC-62 melanoma

SMILES | TGI (EKVX NSCLC) | TGI (HCT-15 colon) | TGI (HOP-92 NSCLC) | TGI (IGROV1 ovarian) | TGI (MCF7 breast) | TGI (NCI-H226 lung) | TGI (NCI/ADR-RES ovarian) | TGI (OVCAR-5 ovarian) | TGI (SK-OV-3 ovarian) | TGI (UACC-257 melanoma) | TGI (UACC-62 melanoma)
COc1ccc(/C=C2\N=C(N3CCCC(CO)C3)NC2=O)cc1 (stereo not given) | > 100 µM | > 100 µM | > 100 µM | > 100 µM | > 100 µM | > 100 µM | > 100 µM | > 100 µM | > 100 µM | > 100 µM | > 100 µM
C(=N\c1nc2cc3sc(/N=C/c4ccccc4)nc3cc2s1)/c1ccccc1 | > 100 µM | > 100 µM | > 100 µM | > 100 µM | > 100 µM | > 74 µM | > 100 µM | > 100 µM | > 100 µM | > 100 µM | > 100 µM
C[C@H](Nc1nc(N)c(N=O)c(=O)n1C)C(=O)O | > 10 µM | > 10 µM | > 10 µM | > 10 µM | > 10 µM | > 10 µM | > 10 µM | > 10 µM | > 10 µM | > 10 µM | > 10 µM
NC1=Nc2ccccc2Sc2nncn21 | > 100 µM | > 100 µM | > 100 µM | > 100 µM | > 100 µM | > 100 µM | > 100 µM | > 100 µM | > 100 µM | > 100 µM | > 100 µM
Cc1c(NC(=S)Nc2ccc([N+](=O)[O-])cc2)c(=O)n(-c2ccccc2)n1C | > 100 µM | > 100 µM | > 100 µM | > 100 µM | > 100 µM | > 100 µM | > 100 µM | > 100 µM | > 100 µM | > 100 µM | > 100 µM
COc1ccc(/C=N\N(C)Cc2cccc3ccsc23)cc1 | > 100 µM | > 100 µM | > 100 µM | > 100 µM | > 100 µM | > 100 µM | > 100 µM | > 100 µM | > 100 µM | > 100 µM | > 100 µM
O=S(=O)(O)c1ccc(N=Nc2ccccc2)cc1 | > 100 µM | > 100 µM | > 100 µM | > 100 µM | > 100 µM | > 100 µM | > 100 µM | > 100 µM | > 100 µM | > 100 µM | > 100 µM
COc1ccc2c(c1)c1c3c(ccc4ncn2c43)N(CCO)CCN=1 | 1.08 µM | 0.611 µM | 5.2 µM | 5.53 µM | 0.944 µM | 0.522 µM | 1.76 µM | 0.715 µM | 2.03 µM | 1.39 µM | 0.602 µM
CCOC(=O)c1c(O)cn2c1[nH]c1cccc3cccc2c31 | > 100 µM | > 100 µM | > 100 µM | > 100 µM | > 100 µM | > 100 µM | > 100 µM | > 100 µM | > 100 µM | > 100 µM | > 100 µM
Nc1ncnc2c1ncn2[C@H]1C=C[C@@H](NO)C1 | > 100 µM | > 100 µM | > 100 µM | > 100 µM | > 100 µM | > 100 µM | > 100 µM | > 100 µM | > 100 µM | > 100 µM | > 100 µM
